According to PubChem BioAssay AID1626 (SRMLSC, 2009):

Tested on: M. tuberculosis H37Rv growth inhibition
Experiment: M. tuberculosis H37Rv growth inhibitors, H37Rv strain (AID 1626)
Conditions: for IC90: measured here: IC90 against H37Rv; for CC50: measured here: Vero cell cytotoxicity

Row | Structure (SMILES) | IC50 | IC90 | CC50
1 | COC(=O)c1c(NC(=O)CC2SC(N)=NC2=O)sc2c1CCC(C(C)(C)C)C2 (stereo not given) | 16.4 µM | 24 µM | 35 µM
2 | Cc1cccc(-n2c(/C=C/c3ccc([N+](=O)[O-])o3)nc3ccccc3c2=O)c1 |  | > 100 µM | 28.7 µM
3 | CCCn1c(NC(=O)c2ccco2)nc2ccccc21 | 5.87 µM | 18.6 µM | > 40 µM
4 | O=C(Nc1nnc(C2=COCCO2)o1)c1ccc(Cl)cc1 | 2.71 µM | 4.41 µM | > 40 µM
5 | CN(C)CCCN(C(=O)CCc1ccccc1)c1nc2ccc(Br)cc2s1 | 22.5 µM | 24.2 µM | 16.7 µM
6 | COc1cc(/C=C/C(=O)OCC(=O)NC(=O)NC23CC4CC(CC(C4)C2)C3)ccc1OCC#N | 8.37 µM | > 100 µM | > 40 µM
7 | O=C(Oc1ccc2cc(Br)ccc2c1)c1cccnc1 | 1.38 µM | > 100 µM | > 40 µM
8 | COc1ccc(NC(=O)CN(C)CC(=O)Nc2cccc(F)c2)cc1Cl | 32 µM | > 100 µM | 
9 | O=C(NCc1ccco1)c1cnn2c1NC(c1ccc(Br)cc1)CC2C(F)(F)F (stereo not given) | 1.51 µM | 1.71 µM | > 40 µM
10 | CCC(C)c1ccc(NC(=O)COC(=O)C2=COCCO2)cc1 (stereo not given) | 4.54 µM | > 100 µM | 
11 | CC(=O)Nc1nc2ccccc2n1Cc1ccccc1Cl | < 0.195 µM | > 100 µM | 16.3 µM
12 | Cc1cc(N2CCCCC2)nc2ccc(NC(=O)c3ccc(Br)o3)cc12 | 1.69 µM | 3.38 µM | > 40 µM
13 | CCOC(=O)c1ccc(NCc2ccc(N(C)C)cc2)cc1 |  | > 100 µM | 
14 | O=C(/C=C/c1cccnc1)/C=C/c1cccnc1 | 0.909 µM | 1.33 µM | 3.09 µM
15 | CCCCn1c(O)c(C(=O)/C=C/c2ccc3c(c2)OCO3)c(=O)[nH]c1=O | 4.53 µM | 7.66 µM | > 40 µM
16 | CCOC(=O)c1cnc(-n2nc(C)cc2C)nc1NCCc1ccccc1 | 0.688 µM | 1.06 µM | > 40 µM
17 | COc1ccc(CNc2ncnc3cc(Cl)ccc23)cc1 | 58.5 µM | > 100 µM | 
18 | Cc1sc(NC(=O)c2ccco2)c(C(c2ccccc2)N2CCC(C)CC2)c1C (stereo not given) |  |  | > 40 µM
19 | CCn1c(NC(=O)c2ccccc2)nc2ccccc21 | 1.71 µM | 8.64 µM | > 40 µM
20 | O=C(c1cc(COc2ccc(F)cc2Cl)on1)N1CCC(OCc2cccnc2)CC1 |  | > 100 µM | 8.01 µM
21 | Cc1ccc(Nc2c(-c3ccccn3)nc3cccc(C)n23)cc1 | 2.72 µM | 3.06 µM | 1.18 µM
22 | COc1ccc(N2CCN(Cc3nc(N)nc(Nc4ccc(C)c(Cl)c4)n3)CC2)cc1 | 0.546 µM | 1.71 µM | > 40 µM
23 | CCOc1ccc(NC(=O)N(C2CCCCC2)C2CCN(C(C)=O)CC2)cc1 |  | > 100 µM | 
24 | N#CC1=C(N)NC(SCC(=O)c2ccccc2)=C(C#N)C12CCCC2 | 7.73 µM | > 100 µM | 
25 | CC(C)N1C(=O)NC(=O)C2(Cc3cc([N+](=O)[O-])ccc3N(C)C2c2ccccc2)C1=O (stereo not given) | 17.8 µM | 52.1 µM | > 40 µM
26 | COc1ccc(N=C2NN=C(c3c(C)[nH]c4ccccc34)CS2)cc1 | 39 µM | > 100 µM | 29.6 µM
27 | O=C1N=C2N(CCN3CCCCC3)c3ccccc3N2/C1=C\c1ccc([N+](=O)[O-])o1 | 1.56 µM | 1.6 µM | 4.9 µM

Row | Structure (SMILES) | IC50 | IC90 | CC50
28 | N=C1S/C(=C\c2ccc(-c3cccc(Cl)c3)o2)C(=O)N1c1nccs1 | < 0.195 µM | 13.9 µM | 5.77 µM
29 | O=[N+]([O-])c1ccc(/C=N/n2c(CO)nc3ccccc32)s1 | 0.523 µM | 1.1 µM | > 40 µM
30 | N#C/C(=C/c1cn(-c2ccccc2)nc1-c1cccc(OCc2ccc(F)cc2)c1)C(=O)NCCCn1ccnc1 | 4.19 µM | 6.45 µM | 22.5 µM
31 | Cc1coc2c1C(=O)C(=O)c1c-2ccc2c(C)cccc12 | 0.336 µM | 0.366 µM | 27.8 µM
32 | OCCN(/C=N/c1nc(-c2ccc(Br)cc2)cs1)CCO | 31.4 µM | > 100 µM | 
33 | NC1=NC[C@H](Cc2ccc(O)cc2)N1CCCCC1CCCCC1 | 5.33 µM | 7.7 µM | 
34 | CCN1CCN(Cc2ccc(NC(=O)c3cc(NC(=O)c4cncc(-c5ccc(C#N)cc5)c4)cc(OC)c3)cc2C(F)(F)F)CC1 | 4.55 µM | 6.7 µM | 5.63 µM
35 | Cc1ccc(C)c(-c2csc(NC(=O)c3cnccn3)n2)c1 | 2.6 µM | > 100 µM | > 40 µM
36 | C/C(=N\N=C(/N)SC1CC(=O)N(c2ccc(Br)cc2)C1=O)c1cccs1 (stereo not given) | 9.24 µM | 16.8 µM | > 40 µM
37 | CCCNC(=O)c1nnsc1S(=O)c1ccc(Cl)cc1 (stereo not given) | 8.74 µM | 10.5 µM | 8.53 µM
38 | Cc1cc(C(=O)Cn2cncn2)c(C)n1CCc1ccc(F)cc1 |  | > 100 µM | 
39 | CCCNC(=O)CSc1nnc(-c2ccc(F)cc2)o1 | 5.88 µM | > 100 µM | 
40 | O=C(Nc1ccc(N2CCN(C(=O)c3ccco3)CC2)cc1)C(c1ccccc1)c1ccccc1 | 12 µM | 14.1 µM | > 40 µM
41 | O=C(c1ccc(COc2ccc(Cl)cc2)o1)N1CCN(Cc2ccc3c(c2)OCO3)CC1 | 10.8 µM | 21.9 µM | > 40 µM
42 | Cc1ccc(NC(=O)CSc2ccc(-c3ccccn3)nn2)cc1 | 1.98 µM | 2.74 µM | > 40 µM
43 | CCCCc1ccc(C2C3=C(CC(C)(C)CC3=O)NC3=C2C(=O)c2ccccc23)cc1 (stereo not given) | 3.09 µM | > 100 µM | > 40 µM
44 | O=C(COC(=O)c1ccc(Cl)s1)c1ccc[nH]1 | 8.14 µM | 16.7 µM | 
45 | Cc1cccc(N=Nc2c(N)n[nH]c2-c2ccc(Cl)cc2)c1 | 59.1 µM | > 100 µM | 
46 | COc1cc(OC)c2c(-c3ccccc3)cc(=O)oc2c1C(CCN1CCCC(C)C1)c1ccc2c(c1)OCO2 (stereo not given) | 5.64 µM | 10.4 µM | 24.3 µM
47 | Cc1oc2ccc(OC(=O)c3cccs3)cc2c1C(=O)OC(C)C | 2.84 µM | 21.3 µM | 
48 | COc1ccc(NC(C#N)c2ccccc2OCc2ccccc2)cc1 (stereo not given) | 69.8 µM | > 100 µM | 
49 | O=[N+]([O-])c1cc(-c2n[nH]c(-c3ccccc3)n2)cc([N+](=O)[O-])c1 | 28.4 µM | > 100 µM | > 40 µM
50 | COc1ccc(C2=CC(c3c(C)nn(-c4ccccc4)c3Cl)n3nnnc3N2)cc1OC (stereo not given) | 8.88 µM | 14.1 µM | 
51 | CCc1ccc(C2c3[nH]c4ccccc4c3CCN2C(=O)c2cc(C)nn2C)cc1 (stereo not given) | 22.2 µM | 31.9 µM | > 40 µM
52 | NC(=O)c1ccc(NC(=O)COC(=O)c2c3c(nc4ccccc24)/C(=C\c2cccs2)CCC3)cc1 | 0.572 µM | 9.77 µM | 7.95 µM
53 | COC(=O)CSc1nc(N)c2c3c(sc2n1)C(c1ccccc1)SC(c1ccccc1)C3 (stereo not given) | 14.4 µM | > 100 µM | 7.1 µM
54 | O=C(CNCc1ccco1)Nc1ccc(Oc2ccccc2)cc1 |  | > 100 µM | > 40 µM

Row | Structure (SMILES) | IC50 | IC90 | CC50
55 | O=C(COC(=O)Cc1ccccc1)Nc1ccc(SC(F)F)cc1 | 36.4 µM | > 100 µM | 
56 | Cc1ccc(NS(=O)(=O)c2cc(NC(=O)c3ccc4c(c3)NC(=O)CS4)ccc2C)c(C)c1 | 11.1 µM | > 100 µM | > 40 µM
57 | COc1ccc(OCc2nn3c(-c4cccc(OC)c4)nnc3s2)cc1 |  | > 100 µM | 
58 | CCCc1cc(NCc2ccccn2)n2nc(C)c(-c3ccccc3)c2n1 | 4.33 µM | 7.09 µM | > 40 µM
59 | COc1cc(CNC23CC4CC(CC(C4)C2)C3)ccc1OCc1ccccc1 | 2.94 µM | 3.35 µM | > 40 µM
60 | Cc1ccc(-c2ccc(/C=N/c3ncn[nH]3)o2)cc1Cl | 30.2 µM | > 100 µM | 
61 | O=C(c1ccccc1)N1CCN(c2ccc([N+](=O)[O-])cc2-n2cccc2)CC1 | 4.17 µM | 7.26 µM | > 40 µM
62 | c1ccc(CNc2nc(CN3CCOCC3)nc3scc(-c4ccccc4)c23)cc1 | 13 µM | 21.9 µM | 
63 | Cc1cc(SCC(=O)OC/C(O)=C(\C#N)c2nc3ccccc3[nH]2)c(C)cc1Br | 9.09 µM | 12.6 µM | > 40 µM
64 | C(=C\c1nc(N2CCCCCC2)c2ccccc2n1)/c1ccccc1 | 8.43 µM | 11.1 µM | 37.5 µM
65 | O=C(CCSc1nnc(-c2ccccc2)o1)N1CCOCC1 | 13 µM | 18 µM | 
66 | CCOC(=O)c1ccc(NC(=O)NS(=O)(=O)c2ccc(C)cc2)cc1 | 7.99 µM | > 100 µM | 
67 | N#CC(c1ccc(Cl)cc1)c1ccc2c(C(F)(F)F)cc(C(F)(F)F)nc2n1 (stereo not given) | 0.571 µM | 0.691 µM | 0.904 µM
68 | Cc1ccc(S(=O)(=O)Nc2ccc(NC(=O)c3c(F)c(F)c(F)c(F)c3F)cc2)cc1 |  |  | 21.8 µM
69 | Cc1ccc(NC(=O)CSCC#N)cc1Cl | 47.5 µM | > 100 µM | 
70 | CC(C)c1ccc(-n2cccc2/C=C2/C(=N)N3C=CSC3=NC2=O)cc1 | 11.9 µM | > 100 µM | > 40 µM
71 | Cc1cccc(C(=O)Nc2ccc(C(=O)/C=C/c3cccnc3)cc2)c1 | 6.04 µM | 9.07 µM | 22.3 µM
72 | CCOC(=O)N1CCN(C(=O)CSc2nnc(COc3ccccc3)o2)CC1 | 24.7 µM | 40 µM | 
73 | CN(C)c1ccc(C(=O)Nc2nnc(C3=COCCO3)o2)cc1 | 23.5 µM | 26.7 µM | > 40 µM
74 | CCOC(=O)c1ccc(NC(=O)c2nc[nH]c2C(=O)N[C@H](C)c2ccccc2)cc1 | 6.38 µM | 24.6 µM | 26 µM
75 | O=c1oc2ccccc2c(Nc2ccc3ccccc3c2)c1[N+](=O)[O-] | 7.32 µM | > 100 µM | > 40 µM
76 | CCOC(=O)c1cnc(-n2nc(C)cc2C)nc1NC(C)c1ccccc1 (stereo not given) | 1.06 µM | 2.08 µM | 36 µM
77 | COc1ccc(N)cc1-n1cnnn1 |  | > 100 µM | 
78 | CCOC(=O)CSc1nc(-c2ccccc2)ns1 | 5.59 µM | 8.55 µM | 
79 | Cc1cccc(-c2ncc(CN3CCC(CO)(CCCc4ccccc4)CC3)cn2)c1 | 13.2 µM | 40.7 µM | > 40 µM
